One experiment relates to HeLa (cervical cancer). The experiment is described as follows: MTT cell viability assay, HeLa. It counts as cell-based, human. As to conditions: 72 h of incubation, mean ± SD. In a few lines:
(§1)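 Cells were seeded at 5 × 10^3 cells/well and exposed for 72 h to compounds at 1, 10, 25, 50 and 100 μM, with DMSO stocks. MTT (0.5 mg/mL) was added for 2 h at 37 °C, and formazan absorbance was read at 550 nm. Values are mean ± SD of at least three independent triplicate experiments.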

The test system of the next experiment is HCT-116, HeLa and MCF-7. Nature of the experiment: MTT cell viability assay, all tested cell lines together. Type of experiment: cell-based. As to conditions: Homo sapiens; average over HCT-116, HeLa and MCF-7; read-out: average IC50 against all tested cell lines. As to the method: All chemicals, if not stated otherwise, were obtained from Sigma-Aldrich (St. Louis, MO, USA). The MCF-7 cell line was purchased from Cell Lines Services (Eppelheim, Germany), the HeLa and HCT-116 cell lines were obtained from the Department of Microbiology, Tumor and Cell Biology, Karolinska Institute (Stockholm, Sweden). Cells were cultured in Dulbecco’s modified Eagle’s medium (DMEM) supplemented with 10% fetal bovine serum, 2 mM glutamine, 100 units/mL penicillin, and 100 μg/mL streptomycin. Cultures were maintained in a humidified atmosphere with 5% CO2 at 37 °C in an incubator (HeraCell, Heraeus, Langenselbold, Germany).
Cell viability was determined using the MTT (3-(4,5-dimethylthiazol-2-yl)-2,5-diphenyl-tetrazoliumbromide) assay. Stock solutions of the studied compounds were prepared in 100% DMSO. […] Cells were seeded in 96-well plates at a density of 5 × 10^3 cells/well and treated for 72 h with the examined compounds in the concentration range 1–100 μM (1, 10, 25, 50 and 100 μM). Following treatment, MTT (0.5 mg/mL) was added to the medium and cells were further incubated for 2 h at 37 °C. Cells were lysed with DMSO and the absorbance of the formazan solution was measured at 550 nm with a plate reader (1420 multilabel counter, Victor, Jügesheim, Germany). […] The experiment was performed in triplicate. Values are expressed as the mean ± SD of at least three independent experiments.

Another experiment concerns HCT-116 (colon cancer). The experiment is described as follows: MTT cell viability assay, HCT-116. It counts as cell-based, human. To be noted: 72 h of incubation, mean ± SD. Summed up:
as §1
Background: Tetrazolium assays rely on reduction of a dye to a coloured formazan, in cell work by metabolically active cells.

Experiment [1] relates to active caspases (caspases 1 through 9) in HeLa cells. The experiment is described as follows: Caspase activity (FAM-VAD-FMK, flow cytometry), HeLa. Type of experiment: cell-based, human. As to conditions: 100 μM, increase over control. The method, then:
Caspase activation plays a central role in the execution of apoptosis and is required for the occurrence of its biochemical and morphological hallmarks, such as DNA fragmentation, formation of apoptotic bodies and chromatin condensation. The ability of the examined compounds to induce caspase activity was determined with the use of a fluorescent labeled caspase inhibitor, a carboxyfluorescein (FAM) derivative of valylalanylaspartic acid (VAD) fluoromethyl ketone (FMK).
FAM-VAD-FMK contains a target sequence recognized by active caspases (caspases 1 through 9). Binding to this sequence inhibits the enzymatic activity of caspases and allows for the determination of their activity through the direct measurement of fluorescent intensity of the bound inhibitor. […] The strongest influence on caspase activation was noticed for the HeLa cell line, where that cell population increased by 31% in the presence of 37 at a concentration of 100 μM.
Caspase activity was determined with the FLICA Apoptosis Detection Kit (Immunochemistry Technologies, Bloomington, MN, USA) according to the manufacturer’s instructions. […] The fluorescence intensity of fluorescein was determined with flow cytometry (BD FACSCalibur) and caspase activity was determined as the amount of fluorescence emitted from caspase inhibitors bound to the caspases.
(In general: In flow cytometry, cells or beads pass a laser one at a time.)

Experiment [2] concerns HCT-116. The experiment is described as follows: Mitochondrial membrane potential (JC-1), HCT-116. As to conditions: HCT-116, 24 h, low and moderate concentrations. Type of experiment: cell-based, human. The method, then: Loss of the mitochondrial membrane potential (Δψm) is one of the earliest indicators of an apoptosis. It can be detected using fluorescent dye JC-1 (5,5′,6,6′-tetrachloro-1,1′,3,3′-tetraethylbenzimidazolylcarbocyanine iodide) exited with blue laser. JC-1 spontaneously forms dimer complexes (J aggregates) with red fluorescent or remain as a monomers with green fluorescence in cells with high and low Δψm, respectively.
Half an hour before the end of 24 h-treatment 2.5 μg/mL of JC-1 (5,5′,6,6′-tetrachloro-1,1′,3,3′-tetraethylbenzimidazolylcarbocyanine iodide) was added to the cell medium. As a negative control 100 μM CCCP (carbonyl cyanide 3-chlorophenylhydrazone) was used 15 min before JC-1 treatment. Following treatment cells were twice washed with PBS and analyzed with flow cytometer (LSR II, BD Biosciences).
Green and red fluorescence were observed using FL-1 (530 ± 30 nm) and FL-2 (585 ± 42 nm) channels, respectively. Percentage of cell population in red or green fluorescence gate indicated the level of Δψm. Decreasing red fluorescence cell population indicated lower Δψm.

For experiment [3], the system named is HCT-116. The experiment is described as follows: Cell cycle analysis (sub-G1, DAPI flow cytometry), HCT-116. Type of experiment: cell-based, human. To be noted: HCT-116, 24 h, dose dependent increase, mean ± SD. As to the method:
One of the most common mechanisms in anticancer drug treatment is changes in cell cycle, which can be measured by DNA content. Cell cycle distribution in HCT-116, HeLa and MCF-7 cells was examined to determine cycle arrest and/or presence of sub-G1 after treatment with compounds 37 and 46. […] Cell populations data are expressed as the mean ± SD of at least three independent experiments.
Following treatment, cells were fixed in cold 70% ethanol for 30 min. Fixed cells were stained for 15 min in buffer containing 500 μg/mL RNAse A (EURx, Gdansk, Poland) and 2.5 μg/mL of DAPI (Sigma-Aldrich, Munich, Germany). The fluorescence of DAPI was measured at 440 ± 40 nm with a flow cytometer (LSR II, BD Biosciences, Mountain View, CA, USA). Each experiment was performed at least in triplicate. Data were analyzed off-line using the BD FACSDiva (BD Biosciences).

On to `Cc1cc(S(=O)(=O)Nc2nncc(-c3ccc(C(F)(F)F)cc3)n2)c(SCc2cccc3ccccc23)cc1Cl` [Compound 37, 4-Chloro-5-methyl-2-[(naphthalene-1-yl)methylthio]-N-[5-(4-trifluoromethylphenyl)-1,2,4-triazin-3-yl]-benzenesulfonamide], for which the IC50 (usually the concentration that inhibits the measured activity by half) was 34 ± 2 µM with HeLa (cervical cancer); 34 to 42 µM with HeLa (cervical cancer) (Homo sapiens, 72 h); 47 µM in the experiment with HCT-116, HeLa and MCF-7; 36 ± 1 µM in the experiment on HCT-116 (colon cancer); 36 to 38 µM with HCT-116 (colon cancer) (Homo sapiens, HCT-116, 72 h). Moreover, in experiment [1], the “increase of cell population with activated caspases” value was found to be 31%. Moreover, the “effect on mitochondrial membrane potential (Δψm)” value in the experiment on HCT-116 [2] is listed as “remarkably decreased Δψm”. In addition, in the experiment with HCT-116 [3], the Sub-G1 cell population is listed as 48.6% ± 13.5%.

The record behind these values is publication PMC6273912, “Novel 5-Substituted 2-(Aylmethylthio)-4-chloro-N-(5-aryl-1,2,4-triazin-3-yl)benzenesulfonamides: Synthesis, Molecular Structure, Anticancer Activity, Apoptosis-Inducing Activity and Metabolic Stability” (Molecules, 2016).
